Measurements published in the supplement of paper PMC4932681.
Structures can show the parent of a compound that is named as a salt.

Key:
[1] = test system: MCF-7 Tam1; assay: drug sensitivity score (DSS) (DSS (dimensionless)); higher = more sensitive; extreme values may be limits of the assay; conditions: 4-OH-tamoxifen in medium 1 µM; 72 h
Outline: (§1)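 Breast cancer cell lines and their resistant derivatives were seeded into 384-well plates holding FO2Baq library drugs at five concentrations spanning a 10 000-fold range. Resistant lines were in medium with 1 μM of the selecting drug. Cells were incubated 72 h at 37 °C, and CellTiter-Glo viability was read on a PHERAstar and normalised to vehicle-only and positive controls. Drug sensitivity score, relative IC50 (curve midpoint) and top-dose inhibition came from logistic dose–response fits (Breeze pipeline).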

[2] = test system: MCF-7; assay: as above; conditions: 72 h
Outline: as §1

[3] = test system: ZR-75-1 Tam1; assay: as above; conditions: 4-OH-tamoxifen in medium 1 µM; 72 h
Outline: as §1

[4] = test system: T-47D Tam1; assay: as above; conditions: 4-OH-tamoxifen in medium 1 µM; 72 h
Outline: as §1

[5] = test system: T-47D; assay: as above; conditions: 72 h
Outline: as §1

[6] = test system: ZR-75-1 Tam2; assay: as above; conditions: 4-OH-tamoxifen in medium 1 µM; 72 h
Outline: as §1

[7] = test system: BT-474 Tam2; assay: as above; conditions: 4-OH-tamoxifen in medium 1 µM; 72 h
Outline: as §1

[8] = test system: T-47D Tam2; assay: as above; conditions: 4-OH-tamoxifen in medium 1 µM; 72 h
Outline: as §1

[9] = test system: ZR-75-1; assay: as above; conditions: 72 h
Outline: as §1

[10] = test system: BT-474; assay: as above; conditions: 72 h
Outline: as §1

[11] = test system: BT-474 Tam1; assay: as above; conditions: 4-OH-tamoxifen in medium 1 µM; 72 h
Outline: as §1

[12] = test system: MCF-7 Tam1; assay: relative IC50 (midpoint of fitted logistic curve, plateau may be below 50% inhibition; CellTiter-Glo viability); higher = less potent; conditions: 4-OH-tamoxifen in medium 1 µM; 72 h
Outline: as §1

[13] = test system: MCF-7; assay: as above; conditions: 72 h
Outline: as §1

[14] = test system: ZR-75-1 Tam1; assay: as above; conditions: 4-OH-tamoxifen in medium 1 µM; 72 h
Outline: as §1

[15] = test system: T-47D Tam1; assay: as above; conditions: 4-OH-tamoxifen in medium 1 µM; 72 h
Outline: as §1

[16] = test system: T-47D; assay: as above; conditions: 72 h
Outline: as §1

[17] = test system: ZR-75-1 Tam2; assay: as above; conditions: 4-OH-tamoxifen in medium 1 µM; 72 h
Outline: as §1

[18] = test system: BT-474 Tam2; assay: as above; conditions: 4-OH-tamoxifen in medium 1 µM; 72 h
Outline: as §1

[19] = test system: T-47D Tam2; assay: as above; conditions: 4-OH-tamoxifen in medium 1 µM; 72 h
Outline: as §1

[20] = test system: ZR-75-1; assay: as above; conditions: 72 h
Outline: as §1

[21] = test system: BT-474; assay: as above; conditions: 72 h
Outline: as §1

[22] = test system: BT-474 Tam1; assay: as above; conditions: 4-OH-tamoxifen in medium 1 µM; 72 h
Outline: as §1

Compound	drug sensitivity score [1]	drug sensitivity score ([2]; 4-OH-tamoxifen in medium 0 µM)	drug sensitivity score ([2]; 4-OH-tamoxifen in medium 1 µM)	drug sensitivity score [3]	drug sensitivity score [4]	drug sensitivity score ([5]; 4-OH-tamoxifen in medium 0 µM)	drug sensitivity score ([5]; 4-OH-tamoxifen in medium 1 µM)	drug sensitivity score [6]	drug sensitivity score [7]	drug sensitivity score [8]	drug sensitivity score ([9]; 4-OH-tamoxifen in medium 0 µM)	drug sensitivity score ([9]; 4-OH-tamoxifen in medium 1 µM)	drug sensitivity score ([10]; 4-OH-tamoxifen in medium 0 µM)	drug sensitivity score ([10]; 4-OH-tamoxifen in medium 1 µM)	drug sensitivity score [11]	relative IC50 [12] [µM]	relative IC50 ([13]; 4-OH-tamoxifen in medium 0 µM) [µM]	relative IC50 ([13]; 4-OH-tamoxifen in medium 1 µM) [µM]	relative IC50 [14] [µM]	relative IC50 [15] [µM]	relative IC50 ([16]; 4-OH-tamoxifen in medium 0 µM) [µM]	relative IC50 [17] [µM]	relative IC50 [18] [µM]	relative IC50 [19] [µM]	relative IC50 ([20]; 4-OH-tamoxifen in medium 0 µM) [µM]	relative IC50 ([20]; 4-OH-tamoxifen in medium 1 µM) [µM]	relative IC50 ([21]; 4-OH-tamoxifen in medium 1 µM) [µM]	relative IC50 [22] [µM]	relative IC50 ([16]; 4-OH-tamoxifen in medium 1 µM) [µM]	relative IC50 ([21]; 4-OH-tamoxifen in medium 0 µM) [µM]
CC(C)(C)c1cnc(CSc2cnc(NC(=O)C3CCNCC3)s2)o1 [SNS-032]	2.67	20	11.8	9.78	8.4	7.36	1.24	11.1	14.4	4.33	12.3	9.55	0.78	15.8	23.8	1.2	0.0382	0.134	0.308	0.362	0.451	0.297	0.42	0.6	0.243	0.315	0.0837	0.0829		
O=C(CCBr)N1CCN(C(=O)CCBr)CC1 [Pipobroman]	0	0	0	0	0	0	0	0	0	0	0	0	0	0	0	> 10	> 10	> 10	> 10	> 10	> 10	> 10	> 10	> 10	> 10	> 10	> 10	> 10	> 10	> 10
O=C(O)CCCc1ccc(N(CCCl)CCCl)cc1 [Chlorambucil]	0	0	0	0	0	0	0	0	0	0	0	0	0	0	0	> 10	> 10	> 10	> 10	> 10	> 10	> 10	> 10	> 10	> 10	> 10	> 10	> 10	> 10	> 10
c1ccc([C@H]2CN3CCSC3=N2)cc1 [Levamisole, (Tetramisole hydrochloride)]	0	0	0	0	0	0	0	0	0	0	0	0	0	0	0	> 10	> 10	> 10	> 10	> 10	> 10	> 10	> 10	> 10	> 10	> 10	> 10	> 10	> 10	> 10
Oc1ncc(N(CCCl)CCCl)c(O)n1 [Uracil mustard]	0	0	0.208	0	0	0	0	0	0	0	0	0	0	0	0	> 10	> 10		> 10	> 10	> 10	> 10	> 10	> 10	> 10	> 10	> 10	> 10	> 10	> 10
COCC[n+]1c2c(n(Cc3cnccn3)c1C)C(=O)c1ccccc1C2=O [YM155]	25.8	43	26.5	15.3	14.2	27.1	17.6	16.2	16.6	11.4	28.5	19	25.6	20.9	19.6	0.057	0.00265	0.0496	0.454	0.526	0.0475	0.358	0.337	0.811	0.0365	0.202	0.171	0.218	0.299	0.0711
O=C(O)CC[C@H]1CC[C@@](c2cc(F)ccc2F)(S(=O)(=O)c2ccc(Cl)cc2)CC1 [MK-0752]	0	0	0	0	0	0	0	0	0	0	0	0	0	0	0	> 1	> 1	> 1	> 1	> 1	> 1	> 1	> 1	> 1	> 1	> 1	> 1	> 1	> 1	> 1
